Experiments:
[1] = test system: Setaria viridis (L.) Beauv.; experiment: Herbicidal effect by upland field soil treatment; format: in vivo; set-up: scale not given here; settings: active ingredient 1000 g/ha, examined at 21st day from treatment
Description: (§1) An upland field soil was filled in a plastic pot of 80 cm^2. Seeds of Echinochloa crus-galli (L.) Beauv. var. crusgalli and Setaria viridis (L.) Beauv. were sowed, followed by covering with the same soil. […] Then, breeding was made in a greenhouse, and the herbicidal effect of each wettable powder was examined at the 21st day from the treatment in accordance with the standard shown in Table 21.

[2] = test system: Echinochloa crus-galli (L.) Beauv. var. crusgalli; experiment: Herbicidal effect by upland field soil treatment; format: in vivo; set-up: scale not given here; settings: active ingredient 1000 g/ha, examined at 21st day from treatment
Description: as §1

[3] = test system: Echinochloa oryzicola Vasing; experiment: Herbicidal effect by paddy field soil treatment; format: in vivo; set-up: scale not given here; settings: wettable powder, active ingredient 1000 g/ha, examined at the 21st day from the treatment
In short: (§2)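 Seeds sown in puddled paddy soil under 3 cm of water; the next day wettable powders diluted in water were dropped onto the water surface at 1,000 g active ingredient/ha. Plants grown in a greenhouse, with herbicidal effect scored on day 21 against a rating standard.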

[4] = test system: Monochoria vaginalis (Murm. f.) Presl var. plantaginea (Roxb.) Solms-Laub.; experiment: Herbicidal effect by paddy field soil treatment; format: in vivo; set-up: scale not given here; settings: wettable powder, active ingredient 1000 g/ha, examined at the 21st day from the treatment
In short: as §2

[5] = test system: Echinochloa crus-galli (L.) Beauv. var. crus-galli; experiment: Herbicidal effect by upland foliage treatment; format: in vivo; set-up: scale not given here; settings: active ingredient 1000 g/ha, examined at 14th day from treatment
Experimental: (§3) A sand was filled in a plastic pot of 80 cm^2. Seeds of Echinochloa crus-galli (L.) Beauv. var. crus-galli and Setaria viridis (L.) Beauv. were sowed. Breeding was made in a greenhouse for 2 weeks. Wettable powders produced in accordance with the Formulation 1 were diluted with water and sprayed on the whole foliage of plants from above the plants using a small sprayer in an amount of 1,000 liters per 1 hectare so that the amount of each active ingredient became 1,000 g per 1 hectare. Then, breeding was made in the greenhouse, and the herbicidal effect of each wettable powder was examined at the 14th day from the treatment in accordance with the standard shown in Table 21.

[6] = test system: Setaria viridis (L.) Beauv.; experiment: Herbicidal effect by upland foliage treatment; format: in vivo; set-up: scale not given here; settings: active ingredient 1000 g/ha, examined at 14th day from treatment
Experimental: as §3

Row | SMILES | melting point [°C] | herbicidal effect (index per standard of Table 21), Setaria viridis (L.) Beauv. [1] | herbicidal effect (index per standard of Table 21), Echinochloa curs-galli (L.) Beauv. Var. crus-galli [2] | Herbicidal effect index, Echinochloa oryzicola Vasing [3] | Herbicidal effect index, Monochoria vaginalis (Burm. F.) Presl var. plantaginea (Roxb.) Solms-Laub. [4] | herbicidal effect (index per standard of Table 21), Echinochloa curs-galli (L.) Beauv. Var. crus-galli [5] | herbicidal effect (index per standard of Table 21), Setaria viridis (L.) Beauv. [6]
1 | CC1(C)CC(SCc2c(C(F)(F)F)nn(-c3ccccc3)c2Cl)=NO1 [3-0001, 3-(5-chloro-1-phenyl-3-trifluoromethyl-1H-pyrazol-4-ylmethylthio)-5,5-dimethyl-2-isoxazoline] | 89 to 90 | – | – | – | – | – | –
2 | CN(C)c1c(CS(=O)(=O)C2=NOC(C)(C)C2)c(C(F)(F)F)nn1-c1ccccc1 [3-0005, 5,5-dimethyl-3-(5-dimethylamino-1-phenyl-3-trifluoromethyl-1H-pyrazol-4-ylmethylsulfonyl)-2-isoxazoline] | 150 to 151 | – | – | – | – | – | –
3 | CC1(C)CC(SCc2c(C(F)(F)F)nn(C(C)(C)C)c2Cl)=NO1 [3-0006, 3-(1-tert-butyl-5-chloro-3-trifluoromethyl-1H-pyrazol-4-ylmethylthio)-5,5-dimethyl-2-isoxazoline] | 79 to 81 | 4 | 4 | – | – | – | –
4 | CC1(C)CC(SCc2c(C(F)(F)F)n[nH]c2Cl)=NO1 [3-0007, 3-(5-chloro-3-trifluoromethyl-1H-pyrazol-4-ylmethylthio)-5,5-dimethyl-2-isoxazoline] | 120 to 122 | – | – | – | – | – | –
5 | CCOc1nn(C)c(C(F)(F)F)c1CS(=O)(=O)C1=NOC(C)(C)C1 [3-0012, 5,5-dimethyl-3-(3-ethoxy-1-methyl-5-trifluoromethyl-1H-pyrazol-4-ylmethylsulfonyl)-2-isoxazoline] | 124 to 125 | 5 | 5 | – | – | – | –
6 | CCn1nc(Cl)c(CS(=O)(=O)C2=NOC(C)(C)C2)c1Cl [3-0017, 3-(3,5-dichloro-1-ethyl-1H-pyrazol-4-ylmethylsulfonyl)-5,5-dimethyl-2-isoxazoline] | 105 to 107 | 5 | 5 | – | – | – | –
7 | Cn1nc(C(F)F)c(CS(=O)(=O)C2=NOC(C)(C)C2)c1Cl [3-0018, 3-(5-chloro-3-difluoromethyl-1-methyl-1H-pyrazol-4-ylmethylsulfonyl)-5,5-dimethyl-2-isoxazoline] | 78 to 79 | 5 | 5 | – | – | – | –
8 | CC1(C)CC(S(=O)(=O)Cc2cnccc2C(F)(F)F)=NO1 [7-0001, 5,5-dimethyl-3-(4-trifluoromethyl-pyridin-3-ylmethylsulfonyl)-2-isoxazoline] | 77 to 80 | – | – | – | – | – | –
9 | CC1(C)CC(S(=O)(=O)Cc2ccccn2)=NO1 [9-0001] | – | 5 | 5 | 5 | 5 | 4 | 4
10 | CC1(C)CC(S(=O)(=O)Cc2ncon2)=NO1 [9-0005] | – | 4 | 5 | 5 | 5 | 4 | 4
11 | CC1(C)CC(S(=O)(=O)Cc2csc(Cl)n2)=NO1 [9-0008] | – | 5 | 5 | 5 | 5 | 4 | 4
